Assay results: patent US8044204B2, “8-methoxy-9H-isothiazolo[5,4-b]quinoline-3,4-diones and related compounds as anti-infective agents” (Achillion Pharmaceuticals, Inc., priority 2005, dated 2011)
Values after ≈ are worked out from the molar mass of the structure shown. Where a name gives a salt, the structure may show the parent alone. Read-outs that look alike come from different tables or passages of the source.

Experiments:
Assay type in all cases: cell-based
[1] = Cell viability staining with Alamar Blue (cytotoxicity CC50), Hep2; details: human
Description: To determine whether the microcidal effect observed against S. aureus and E. coli is specific to bacterial cells, compounds are screened for cell viability effects on several human cell types.
Optimal cell density is first determined by plating cells in a 96-well plate standard sterile tissue culture plates in 100 μl media, 10% FBS at six cell densities from 500 cells/well to 15,000 cells/well. A cell free well containing only media is used as a control. Cells are incubated at 37° C. in a 5% CO2 incubator for 24 hours. 10% culture volume (10 ul) of Alamar Blue (Biosource, DAL1100, 100 mL) is then added. Cells are incubated at 37° C. in a 5% CO2 incubator and read in a Victor V plate reader, 544 nm excitation, 590 nm emission, at 3, 4, and 24 hours after the addition of Alamar Blue. The cell number vs. change in fluorescence is plotted to determine linearity of signal vs. cell number. The optimal density varies between 500-15,000 cells/well depending on the specific cell type. The optimal density is selected based on the highest number of cells that is still in the linear response range.
Determination of Compound Cytotoxicity
Cells are plated at optimal cell density in a standard sterile tissue culture 96 well plate, and incubated at 37° C. O/N in a 5% CO2 incubator. 12 to 48 hours post-plating media is removed. The cells are washed 1 or 2 times with 1×PBS and replaced with fresh media containing the test compound in 1% DMSO. 24 to 72 hours after addition of compound, the media is removed, and the cells washed 1 to 2 times with 1×PBS. Fresh media containing 1/10 volume of Alamar Blue is then added. Plates are incubated 4 hours at 37° C. in a 5% CO2 incubator and read in a Victor V plate reader, 544 nm excitation, 590 nm emission.
Compounds are diluted to 20 micromolar in 1% DMSO and media and screened in duplicate to obtain single concentration cytotoxicity data. Eight concentration points from 0.78 micromolar to 100 micromolar, run in duplicate, are used to determine cyclotoxicity CC50 values. Cells with 1% DMSO and media are used as a negative control, compounds having a known CC50 against a particular cell type are used as positive controls.
The change in fluorescence vs. concentration of test compound is plotted to determine the cytotoxicity of the compound.
Sample media conditions, optimal plating densities, and positive control compounds for two cell types screened are presented in Table III.

MRSA strain ATCC 700699 = test: Minimum Inhibitory Concentration (MIC) assay, Methicillin Resistant S. Aureus; details: Staphylococcus aureus
Excerpt: It has been unexpectedly discovered that substitution of compounds of Formula I and Formula II with a methoxy substituent at the R8 position increases the anti-microbial activity of the compound against Methicillin resistant Staphylococcus Aureus bacteria while at the same time decreasing the cellular toxicity of the compound. The simultaneous increase in compound activity and decrease in compound toxicity provides a greater therapeutic range for compounds of Formula I and Formula II in which R8 is methoxy; i.e. the range of doses of such compounds that will produce beneficial effects without harmful side effects is increased. […] Therapeutic range is determined using a standard assay of cytotoxicity such as the Alamar blue assay provided in Example 10.
The antimicrobial activity of the compounds of the invention may be evaluated by a number of methods, including the following visual minimum inhibitory concentration (MIC) assay. This assay determines the minimum concentration of compound required to inhibit growth of a bacterial strain.
Minimum Inhibitory Concentration (MIC) Assay
Whole-cell antibacterial activity is determined by broth microdilution using conditions recommended by the NCCLS (see National Committee for Clinical Laboratory Standards. 2001. Performance standards for antimicrobial susceptibility testing: 11th informational supplement. Vol. 21, no. 1, M100-S11. National Committee for Clinical Laboratory Standards, Wayne, Pa.). Test compounds are dissolved in DMSO and diluted 1:50 in Mueller-Hinton II broth (Becton-Dickinson) to produce a 256 μg/ml stock solution. In a 96-well microtiter plate, the compound solution is serially two-fold diluted in Mueller-Hinton II broth. After the compounds are diluted, a 50 μl aliquot of the test organism (˜1×10^6 cfu/mL) is added to each well of the microtiter plate. The final test concentrations ranges from 0.125-128 μg/mL. Inoculated plates are incubated in ambient air at 37° C. for 18 to 24 hours. The organisms selected for testing included laboratory strains S. aureus ATCC 29213 and E. coli ATCC 25922 (strains purchased from American Type Culture Collection, Manassas, Va.), S. aureus FQR700699, and Paeruginosa 27853. The minimum inhibitory concentration (MIC) is determined as the lowest concentration of compound that inhibited visible growth of the test organism.

S. aureus ATCC 29213 = test: Minimum Inhibitory Concentration (MIC) assay, S. aureus; details: Staphylococcus aureus, ATCC29213; broth microdilution; read-out: MIC against S. Aureus
In short: (§1)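 NCCLS broth microdilution in Mueller-Hinton II broth, two-fold dilutions giving final 0.125–128 μg/mL, inoculum ~1×10^6 cfu/mL. Incubated in ambient air at 37 °C for 18–24 h. MIC read as lowest concentration with no visible growth.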

E. coli ATCC 25922 = test: Minimum Inhibitory Concentration (MIC) assay, E. coli; details: Escherichia coli, ATCC25922; broth microdilution; read-out: MIC against E. coli
In short: as §1

in vitro = details: Chinese hamster
[2] = Hep2 cells (ATCC CCL-23), R6 = F, R8 = H compounds, Hep2 ATCC CCL-23, read-out: hep2 CC50
[3] = R6 = F, R8 = H compounds, MRSA ATCC 700699, read-out: MRSA MIC
[4] = Hep2 cells (ATCC CCL-23), R6 = F, R8 = Methoxy compounds, Hep2 ATCC CCL-23, read-out: hep2 CC50
[5] = R6 = F, R8 = Methoxy compounds, MRSA ATCC 700699, read-out: MRSA MIC
[6] = broth microdilution, read-out: MIC against Methicillin Resistant S. Aureus

Compound | MIC (MRSA strain ATCC 700699; [3]) [µg/mL] | MIC (S. aureus ATCC 29213) [µg/mL] | MIC (E. coli ATCC 25922) [µg/mL] | MIC (MRSA strain ATCC 700699; [5]) [µg/mL] | MIC (MRSA strain ATCC 700699; [6]) [µg/mL] | CC50 [1, 2] [µM] | CC50 [1, 4] [µM] | MIC (MRSA strain ATCC 700699; read-out: MRSA MIC) [µg/mL] | CC50 (in vitro) [µM] | CC50 [1] [µM] | CC50 ([1]; R6 = F, R8 = Methoxy compounds, Hep2 ATCC CCL-23, read-out: hep2 CC50) [µM]
CC(C)(N)[C@H]1CCN(c2cc3c(cc2F)c(=O)c2c(=O)[nH]sc2n3C2CC2)C1 [Compound 61, (S)-7-(3-(2-aminopropan-2-yl)pyrrolidin-1-yl)-9-cyclopropyl-6-fluoroiso-thiazolo[5,4-b]quinoline-3,4(2H,9H)-dione] | 16 (≈ 39.8 µM) | ≤ 1 |  |  |  | 6.1 |  |  |  |  | 
COc1c(N2CC3CCCNC3C2)c(F)cc2c(=O)c3c(=O)[nH]sc3n(C3CC3)c12 (stereo not drawn) [Compound 45, 9-cyclopropyl-6-fluoro-8-methoxy-7-(octahydro-pyrrolo[3,4-b]pyridin-6-yl)isothia-zolo[5,4-b]quinoline-3,4(2H,9H)-dione, hydrochloride] |  | ≤ 1 | ≤ 1 |  |  |  | 93 | 2 |  |  | 
CC(C)(C)c1ccc(C(O)CCCN2CCC(C(O)(c3ccccc3)c3ccccc3)CC2)cc1 (stereo not drawn) [Terfenadine, reference compound] |  |  |  |  |  |  |  |  | 4.3 to 6.5 | 3 to 5 | 
COc1c(N2CC[C@H](C(C)(C)N)C2)c(F)cc2c(=O)c3c(=O)[nH]sc3n(C3CC3)c12 [Compound 58, (S)-7-(3-(2-aminopropan-2-yl)pyrrolidin-1-yl)-9-cyclopropyl-6-fluoro-8-methoxyiso-thiazolo[5,4-b]quinoline-3,4(2H,9H)-dione] |  | ≤ 1 | ≤ 1 | 1.5 (≈ 3.47 µM) |  |  | 61 |  |  |  | 
COc1c(N2CC[C@@H](CN)C2)c(F)cc2c(=O)c3c(=O)[nH]sc3n(C3CC3)c12 [Compound 63, (S)-7-(3-(aminomethyl)-pyrrolidin-1-yl)-9-cyclopropyl-6-fluoro-8-methoxyiso-thiazolo[5,4-b]quinoline-3,4(2H,9H)-dione] |  | ≤ 1 | ≤ 1 | 0.42 (≈ 1.04 µM) | ≤ 1 |  | 11 |  |  |  | 
COc1c(N2CCC(N(C)C)C2)c(F)cc2c(=O)c3c(=O)[nH]sc3n(C3CC3)c12 (stereo not drawn) [Compound 49, 9-cyclopropyl-7-(3-(dimethyl-amino)pyrrolidin-1-yl)-6-fluoro-8-methoxy-isothiazolo[5,4-b]quinoline-3,4(2H,9H)-dione] |  | ≤ 1 | ≤ 1 | 4 (≈ 9.56 µM) |  |  | 68 |  |  |  | 
O=c1[nH]sc2c1c(=O)c1cc(F)c(N3CC4CCCNC4C3)cc1n2C1CC1 (stereo not drawn) [Compound 46, 9-cyclopropyl-6-fluoro-7-(octahydro-pyrrolo[3,4-b]pyridin-6-yl)isothia-zolo[5,4-b]quinoline-3,4(2H,9H)-dione, hydrochloride] |  | ≤ 1 | ≤ 1 |  |  | 4.7 |  | 4 |  |  | 
CC(C)(N)[C@@H]1CCN(c2cc3c(cc2F)c(=O)c2c(=O)[nH]sc2n3C2CC2)C1 [Compound 52, (R)-7-(3-(2-aminopropan-2-yl)pyrrolidin-1-yl)-9-cyclopropyl-6-fluoroisothia-zolo[5,4-b]quinoline-3,4(2H,9H)-dione, hydrochloride] |  | ≤ 1 | ≤ 1 |  | ≤ 1 | 0.55 |  | 0.38 |  |  | 
COc1c(N2CC[C@@H](C(C)(C)N)C2)c(F)cc2c(=O)c3c(=O)[nH]sc3n(C3CC3)c12 [Compound 53, (R)-7-(3-(2-aminopropan-2-yl)pyrrolidin-1-yl)-9-cyclopropyl-6-fluoro-8-methoxyiso-thiazolo[5,4-b]quinoline-3,4(2H,9H)-dione] |  | ≤ 1 | ≤ 1 | 0.1 (≈ 0.231 µM) | ≤ 1 |  | 8.5 |  |  |  | 
COc1c(N2CCNCC2)c(F)cc2c(=O)c3c(=O)[nH]sc3n(C3CC3)c12 [Compound 38, 9-cyclopropyl-6-fluoro-8-methoxy-7-(piperazin-1-yl)isothia-zolo[5,4-b]quinoline-3,4(2H,9H)-dione] |  | ≤ 1 | ≤ 1 | 4.8 (≈ 12.3 µM) |  |  |  |  |  |  | 27

More lines, main results first:

MIC (MRSA strain ATCC 700699; [3]) [µg/mL] | MIC (S. aureus ATCC 29213) [µg/mL] | MIC (E. coli ATCC 25922) [µg/mL] | MIC (MRSA strain ATCC 700699; [5]) [µg/mL] | MIC (MRSA strain ATCC 700699; [6]) [µg/mL] | Compound | CC50 [1, 2] [µM] | CC50 [1, 4] [µM] | MIC (MRSA strain ATCC 700699; read-out: MRSA MIC) [µg/mL] | CC50 (in vitro) [µM] | CC50 [1] [µM] | CC50 ([1]; R6 = F, R8 = Methoxy compounds, Hep2 ATCC CCL-23, read-out: hep2 CC50) [µM]
 | ≤ 1 | ≤ 1 | 0.25 (≈ 0.618 µM) | ≤ 1 | COc1c(N2CC[C@H](CN)C2)c(F)cc2c(=O)c3c(=O)[nH]sc3n(C3CC3)c12 [Compound 67, (R)-7-(3-(aminomethyl)-pyrrolidin-1-yl)-9-cyclopropyl-6-fluoro-8-methoxyiso-thiazolo[5,4-b]quinoline-3,4(2H,9H)-dione] |  | 11 |  |  |  | 
1 (≈ 2.67 µM) | ≤ 1 | ≤ 1 |  |  | NC[C@H]1CCN(c2cc3c(cc2F)c(=O)c2c(=O)[nH]sc2n3C2CC2)C1 [Compound 68, (R)-7-(3-(aminomethyl)-pyrrolidin-1-yl)-9-cyclopropyl-6-fluoroiso-thiazolo[5,4-b]quinoline-3,4(2H,9H)-dione] | 2.3 |  |  |  |  | 
2 (≈ 4.8 µM) | ≤ 1 | ≤ 1 |  |  | CNC(C)(C)[C@@H]1CCN(c2cc3c(cc2F)c(=O)c2c(=O)[nH]sc2n3C2CC2)C1 [Compound 80, (R)-9-cyclo-propyl-6-fluoro-7-(3-(2-(methylamino)propan-2-yl)-pyrrolidin-1-yl)isothia-zolo[5,4-b]quinoline-3,4(2H,9H)-dione] | 0.57 |  |  |  |  | 
2 (≈ 5.15 µM) |  |  |  |  | CN(C)C1CCN(c2cc3c(cc2F)c(=O)c2c(=O)[nH]sc2n3C2CC2)C1 (stereo not drawn) [Compound 114, 9-cyclo-propyl-7-(3-(dimethyl-amino)pyrrolidin-1-yl)-6-fluoroiso-thiazolo[5,4-b]quinoline-3,4(2H,9H)-dione] | 3 |  |  |  |  | 
 | ≤ 1 | ≤ 1 | 0.13 (≈ 0.291 µM) | ≤ 1 | CNC(C)(C)[C@@H]1CCN(c2c(F)cc3c(=O)c4c(=O)[nH]sc4n(C4CC4)c3c2OC)C1 [Compound 76, (R)-9-cyclo-propyl-6-fluoro-8-methoxy-7-(3-(2-(methyl-amino)propan-2-yl)pyrrolidin-1-yl)isothia-zolo[5,4-b]quinoline-3,4(2H,9H)-dione] |  | 27 |  |  |  | 
1 (≈ 2.67 µM) | ≤ 1 |  |  |  | NC[C@@H]1CCN(c2cc3c(cc2F)c(=O)c2c(=O)[nH]sc2n3C2CC2)C1 [Compound 64, (S)-7-(3-(aminomethyl)-pyrrolidin-1-yl)-9-cyclopropyl-6-fluoroiso-thiazolo[5,4-b]quinoline-3,4(2H,9H)-dione] | 3.1 |  |  |  |  | 
